Assay results as given in patent publication EP0863156A1, “Peptides useful as somatostatin antagonists” (American Cyanamid Company, priority 1997, dated 1998).
Square brackets hold non-standard residues; d marks the D form. Peptide text beside a SMILES is read from it.

Legend:
[1] = tested on: serum growth hormone (GH) levels; assay: In vivo serum growth hormone levels in anaesthetized rats (radioimmunoassay); design: species or system Male Sprague-Dawley rats; details: for SGH: i.v., BIM 23014C 10 µg at 60 min
Method: Evaluation in anaesthetized rats. Male Sprague-Dawley rats are anaesthetized with Sagatal and fitted so as to allow efficient intravenous treatment with control and test compounds as well as frequent blood sampling. Blood samples are tested for growth hormone (GH) levels by radioimmunoassay. Thirty minutes after the initiation of blood sampling, rats are given 5 µg, 25 µg or 50 µg of peptide 1.
Peptide 1 is tested in combination with growth hormone releasing factor (GRF), to investigate whether said peptide may be mimicking the action of GRF. Anaesthetized rats are given GRF (1 µg) alone and in combination with peptide 1 (50 µg). […]

[2] = tested on: spontaneous growth hormone secretory pulses; assay: Spontaneous growth hormone secretory pulses in conscious rats under intravenous infusion; assay type: in vivo, Male Sprague-Dawley rats; details: Figure 5
Method: Evaluation in conscious rats. Male Sprague-Dawley rats are fitted so as to allow efficient intravenous treatment with control and test compounds as well as frequent blood sampling. Blood samples are tested for growth hormone (GH) levels by radioimmunoassay. Blood samples are taken over a 12 hour period. At a 6 hour time point, peptide 1 is infused intravenously (300 µg/hr) into conscious, freely moving male rats for two hours. Control animals receive saline infusions over the same time period. […] It is known, SRIF is required for growth hormone pulsatility and that an SRIF antagonist abolishes said pulsatility (see Tannenbaum, G.S. and Ling, N., Endocrinology, 115, 1952-1957, 1984, incorporated herein by reference).

SSTR2 [3] = target: T1, SSTR2 (Rattus norvegicus, UniProt P30680); assay: Competitive binding of 125I labeled S-14 to membranes of cells expressing transfected SSTR2 (SPA); design: expressed in transfected cells
Method: Membrane preparation. Tissue culture cell lines expressing transfected cDNA clones of SSTR2 and SSTR5 are used as a source of plasma membranes which specifically bind ^125I labeled S-14 (Amersham, Arlington Heights, IL). Cells are removed from culture dishes by incubation at 4°C for 5 minutes in PBS containing 1 mM EDTA, spun down (2,000 rpm, 5') and resuspended in 15 mL homogenization buffer (1 mM sodium bicarbonate pH 7.2, 1 mM EDTA, 1 mM EGTA and the following protease inhibitors: leupeptin and aprotenin at 5 µg/mL and benzamidine and bacitracin at 100 µg/mL). Cells are given 20 strokes with a Dounce homogenizer on ice and spun at 2000 rpm for 10 minutes. Membranes are isolated from the supernatant by centrifugation at 17,000 rpm for 30 minutes. The membrane pellet is washed once in 15 mL homogenization buffer and once in storage buffer (25 mM Tris pH 7.4 containing protease inhibitors). […] The membrane pellet is resuspended in storage buffer, measured for protein concentration (BioRad, CA) and stored at -80°C.
Binding assay. […] Bound radioligand is determined by counting in a Microbeta Liquid Scintillation counter (Wallac, Gaithersburg, MD). Binding data is plotted and IC50 and Ki values are calculated for test compounds using Prism software (Graphpad Software Inc., San Diego, CA) and are shown in Table V. Binding is expressed as Ki, µM.

SSTR2 [4] = target: T1, SSTR2; assay: cAMP accumulation in forskolin-stimulated GH4C1/SSTR2 cells (SPA radioimmunoassay); assay type: cell-based; design: expressed in transfected cells; host or cells: GH4C1 rat pituitary tumor cells

T1 sequence (P30680 whole entry): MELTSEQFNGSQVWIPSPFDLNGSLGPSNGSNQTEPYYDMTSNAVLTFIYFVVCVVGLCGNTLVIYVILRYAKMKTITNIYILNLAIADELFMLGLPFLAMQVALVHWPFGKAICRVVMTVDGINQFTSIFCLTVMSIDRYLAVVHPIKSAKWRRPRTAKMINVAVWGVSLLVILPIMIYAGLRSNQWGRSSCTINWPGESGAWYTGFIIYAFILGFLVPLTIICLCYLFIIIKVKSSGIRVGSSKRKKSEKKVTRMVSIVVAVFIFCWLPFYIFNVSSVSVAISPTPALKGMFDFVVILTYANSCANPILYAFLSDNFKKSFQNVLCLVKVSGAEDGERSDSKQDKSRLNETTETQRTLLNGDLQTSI

## CC[C@@H](C)[C@@H](NC(=O)[C@@H](Cc1ccccc1)NC(=O)[C@@H](Cc1c[nH]cn1)NC(C)=O)C(=O)N[C@H](CCCNC(=N)N)C(=O)N[C@H](Cc1c[nH]c2ccccc12)C(=O)N[C@H](Cc1ccccc1)C(N)=O [Peptide 1, Ac-D-His-D-Phe-D-Ile-D-Arg-D-Trp-D-Phe-NH2] (Ac-[dH][dF][dI][dR][dW][dF]-NH2)
[1]; 5 µg, 25 µg or 50 µg of peptide 1 thirty minutes after initiation of blood sampling
  effect upon GH levels: dose related effect upon GH levels
[1]; highest dose (50 µg) of peptide 1 at 30 min
  serum GH levels after first dose: significant increase in serum GH levels
[1]; Peptide 1 5 µg at 30 and 90 min, time 0 min (before dosing)
  SGH: 17.0 ng/mL
[1]; Peptide 1 5 µg at 30 and 90 min, time 15 min (before dosing)
  SGH: 13.6 ng/mL
[1]; Peptide 1 5 µg at 30 and 90 min, time 30 min (time of first dose)
  SGH: 12.2 ng/mL
[1]; Peptide 1 5 µg at 30 and 90 min, time 35 min
  SGH: 17.5 ng/mL
[1]; Peptide 1 5 µg at 30 and 90 min, time 40 min
  SGH: 14.9 ng/mL
[1]; Peptide 1 5 µg at 30 and 90 min, time 45 min
  SGH: 15.7 ng/mL
[1]; Peptide 1 5 µg at 30 and 90 min, time 60 min (time of BIM dose)
  SGH: 11.4 ng/mL
[1]; Peptide 1 5 µg at 30 and 90 min, time 75 min
  SGH: 7.0 ng/mL
[1]; Peptide 1 5 µg at 30 and 90 min, time 90 min (time of second dose)
  SGH: 2.4 ng/mL
[1]; Peptide 1 5 µg at 30 and 90 min, time 95 min
  SGH: 3.1 ng/mL
[1]; Peptide 1 5 µg at 30 and 90 min, time 100 min
  SGH: 1.7 ng/mL
[1]; Peptide 1 5 µg at 30 and 90 min, time 105 min
  SGH: 1.7 ng/mL
[1]; Peptide 1 5 µg at 30 and 90 min, time 135 min
  SGH: 1.1 ng/mL
[1]; Peptide 1 25 µg at 30 and 90 min, time 0 min (before dosing)
  SGH: 19.2 ng/mL
[1]; Peptide 1 25 µg at 30 and 90 min, time 15 min (before dosing)
  SGH: 17.3 ng/mL
[1]; Peptide 1 25 µg at 30 and 90 min, time 30 min (time of first dose)
  SGH: 16.6 ng/mL
[1]; Peptide 1 25 µg at 30 and 90 min, time 35 min
  SGH: 18.4 ng/mL
[1]; Peptide 1 25 µg at 30 and 90 min, time 40 min
  SGH: 17.5 ng/mL
[1]; Peptide 1 25 µg at 30 and 90 min, time 45 min
  SGH: 14.0 ng/mL
[1]; Peptide 1 25 µg at 30 and 90 min, time 60 min (time of BIM dose)
  SGH: 13.1 ng/mL
[1]; Peptide 1 25 µg at 30 and 90 min, time 75 min
  SGH: 6.8 ng/mL
[1]; Peptide 1 25 µg at 30 and 90 min, time 90 min (time of second dose)
  SGH: 5.1 ng/mL
[1]; Peptide 1 25 µg at 30 and 90 min, time 95 min
  SGH: 11.4 ng/mL
[1]; Peptide 1 25 µg at 30 and 90 min, time 100 min
  SGH: 10.5 ng/mL
[1]; Peptide 1 25 µg at 30 and 90 min, time 105 min
  SGH: 7.9 ng/mL
[1]; Peptide 1 25 µg at 30 and 90 min, time 135 min
  SGH: 5.2 ng/mL
[1]; Peptide 1 50 µg at 30 and 90 min, time 0 min (before dosing)
  SGH: 22.7 ng/mL
[1]; Peptide 1 50 µg at 30 and 90 min, time 15 min (before dosing)
  SGH: 17.0 ng/mL
[1]; Peptide 1 50 µg at 30 and 90 min, time 30 min (time of first dose)
  SGH: 19.7 ng/mL
[1]; Peptide 1 50 µg at 30 and 90 min, time 35 min
  SGH: 50.2 ng/mL
[1]; Peptide 1 50 µg at 30 and 90 min, time 40 min
  SGH: 23.4 ng/mL
[1]; Peptide 1 50 µg at 30 and 90 min, time 45 min
  SGH: 15.5 ng/mL
[1]; Peptide 1 50 µg at 30 and 90 min, time 60 min (time of BIM dose)
  SGH: 17.1 ng/mL
[1]; Peptide 1 50 µg at 30 and 90 min, time 75 min
  SGH: 3.5 ng/mL
[1]; Peptide 1 50 µg at 30 and 90 min, time 90 min (time of second dose)
  SGH: 1.9 ng/mL
[1]; Peptide 1 50 µg at 30 and 90 min, time 95 min
  SGH: 67.3 ng/mL
[1]; Peptide 1 50 µg at 30 and 90 min, time 100 min
  SGH: 31.8 ng/mL
[1]; Peptide 1 50 µg at 30 and 90 min, time 105 min
  SGH: 10.5 ng/mL
[1]; Peptide 1 50 µg at 30 and 90 min, time 135 min
  SGH: 2.6 ng/mL
[1]; second dose of peptide 1, highest dose (50 µg), after BIM 23014C
  serum GH levels after second dose: even greater increase in serum GH levels
[2]; conscious male rats, after end of the two hour infusion of 300 µg/hr
  growth hormone secretory pulses upon withdrawal: the pulses resume synchronously, and gradually desynchronize with time
[2]; conscious, freely moving male rats, 300 µg/hr intravenously for two hours from 6 hour time point
  spontaneous growth hormone secretory pulses during infusion: abolition of these pulses
SSTR2 [3]
  Ki: 140 nM
SSTR2 [4]; Forskolin 1.25 µM + MK 678 10 nM + Peptide 1 1 µM (forskolin + MK 678 alone 0.91)
  cAMP: 1.14 pM per 4 x 10^4 cells
SSTR2 [4]; Forskolin 1.25 µM + MK 678 10 nM + Peptide 1 10 µM (forskolin + MK 678 alone 0.91)
  cAMP: 2.69 pM per 4 x 10^4 cells
SSTR2 [4]; Forskolin 1.25 µM + MK 678 10 nM + Peptide 1 50 µM (forskolin + MK 678 alone 0.91)
  cAMP: 3.32 pM per 4 x 10^4 cells
SSTR2 [4]; Forskolin 1.25 µM, no MK 678, Peptide 1 1 µM (forskolin alone 3.04; baseline 0.36)
  cAMP: 2.57 pM per 4 x 10^4 cells
SSTR2 [4]; Forskolin 1.25 µM, no MK 678, Peptide 1 10 µM (forskolin alone 3.04; baseline 0.36)
  cAMP: 3.05 pM per 4 x 10^4 cells
SSTR2 [4]; Forskolin 1.25 µM, no MK 678, Peptide 1 50 µM (forskolin alone 3.04; baseline 0.36)
  cAMP: 3.33 pM per 4 x 10^4 cells
SSTR2 [4]; GH4-C1, test peptide 2 µM, percent reversal of SSTR2 activation by SRIF or MK678, 0% = forskolin plus agonist, 100% = forskolin alone, read-out: cAMP Assay Intrinsic activity
  Emax at 2 µM: 85.2%
SSTR2 [4]; GH4C1/SSTR2 cells, no added SRIF, Figure 1 (Table II) and Figure 2 (Table IV)
  forskolin-stimulated cAMP levels in the absence of SRIF (inverse agonist activity): causes an increase in forskolin-stimulated cAMP levels even in the absence of SRIF
SSTR2 [4]; forskolin stimulated cells, increasing doses of S-14 or MK678, Figure 2 (Table IV)
  parallelism of the dose response curves of S-14 or MK678 with and without peptide 1: directly competing with the SRIF agonists
